Assay results from doi:10.1101/2021.06.01.446583v1 (biorxiv, 2021).

Experiments:
Fp231 [1] = experiment: CNP release at […] nm, Michaelis-Menten non-linear fit; type: biochemical, uncultured Paraglaciecola sp.; details: 0.1-4 mM substrate, 2 nM enzyme
Fp231 [2] = experiment: fucose release by HPAEC-PAD, Michaelis-Menten non-linear fit; type: biochemical, uncultured Paraglaciecola sp.; details: 0.1-4 mM substrate, 2 nM enzyme

Km (Fp231 [1]) [µM]	Km (Fp231 [2]) [µM]	Structure (SMILES)
140 ± 10		C[C@@H]1O[C@@H](Oc2ccc([N+](=O)[O-])cc2Cl)[C@@H](O)[C@H](O)[C@@H]1O [CNP-Fuc, 2-chloro-4-nitrophenyl-α-L-fucopyranoside]
	660 ± 50	CC(=O)N[C@H]1C(O)O[C@H](CO)[C@@H](O[C@@H]2O[C@@H](C)[C@@H](O)[C@@H](O)[C@@H]2O)[C@@H]1O (stereo partly drawn) [Fuc(α1,4)GlcNAc]
